Assay: Permeability of compounds in Caco-2 assay (bi-directional transport)
Format: in vitro ADME
Details: human, pH 7.4; for Papp A→B at 2 h, 2 μM / Papp B→A at 2 h, 2 μM: Caco-2 monolayer, pH 7.40; for Papp A→B at 2 h, 2 μM: A to B; for Papp B→A at 2 h, 2 μM: B to A
Procedure: Caco-2 cells purchased from ATCC were seeded onto […] (PET) in 96-well Corning Insert plates at 1×10^5 cells/cm2, and refreshed medium every 4˜5 days until to the 21st to 28th day for confluent cell monolayer formation. The transport buffer in the study was HBSS with 10.0 mM HEPES at pH 7.40±0.05. Test compound was tested at 2.00 μM bi-directionally in duplicate. Digoxin was tested at 10.0 μM bi-directionally in duplicate, while nadolol and metoprolol were tested at 2.00 μM in A to B direction in duplicate. Final DMSO concentration was adjusted to less than 1%. The plate was incubated for 2 hours in CO2 incubator at 37±1° C., with 5% CO2 at saturated humidity without shaking. […] For nadolol and metoprolol, 200 μL supernatant solution was diluted with 600 μL ultra-pure water for LC-MS/MS analysis. For digoxin and test compounds, 200 μL supernatant solution was diluted with 200 μL ultra-pure water for LC-MS/MS analysis Concentrations of test and control compounds in starting solution, donor solution, and receiver solution were quantified by LC-MS/MS methodologies, using peak area ratio of analyte/internal standard. After transport assay, lucifer yellow rejection assay was applied to determine the Caco-2 cell monolayer integrity. The apparent permeability coefficient Papp (cm/s) was calculated using the equation: Papp=(dCr/dt)×Vr/(A×C0) Where dCr/dt is the cumulative concentration of compound in the receiver chamber as a function of time (μM/s); Vr is the solution volume in the receiver chamber (0.075 mL on the apical side, 0.25 mL on the basolateral side); A is the surface area for the transport, i.e. 0.0804 cm2 for the area of the monolayer, CO is the initial concentration in the donor chamber (μM).

Papp at 2 h, 2 μM (Caco-2, binning criteria Low/Moderate/High, read-out: Papp (permeability bin)) [×10⁻⁶ cm/s] | Papp A→B at 2 h, 2 μM [×10⁻⁶ cm/s] | Papp B→A at 2 h, 2 μM [×10⁻⁶ cm/s] | efflux ratio at 2 h, 2 μM (Papp(BA)/Papp(AB), Caco-2) | Structure (SMILES)
2 to 20 | 0.565 | 2.04 | 3.61 | CC(C)C(=O)OC[C@H]1O[C@@H](n2ccc(NO)nc2=O)[C@@H]2OC(=O)O[C@@H]21 [Compound 1, ((3aR,4R,6R,6aR)-6-((Z)-4-(hydroxyimino)-2-oxo-3,4-dihydropyrimidin-1(2H)-yl)-2-oxotetrahydrofuro[3,4-d][1,3]dioxol-4-yl)methyl isobutyrate]
 | < 0.293 | 0.527 |  | CC(C)C(=O)OC[C@H]1O[C@@H](n2ccc(NO)nc2=O)[C@H](O)[C@@H]1O [molnupiravir, reference compound]

Reference: patent US11865132B2, “Nucleoside derivatives and methods of use thereof” (Ascletis BioScience Co., Ltd., priority 2021, dated 2024)
